From patent publication US20240299309A1 (priority 2020, published 2024) come the findings set out here.

Molecules are shown by their SMILES.

Experiment [1] has as its system SARS-CoV-2. Further details: species or system Balb/c mice. To be noted: mouse, in vivo.
Experiment [2] deals with Staphylococcus aureus. In kind it is cell-based.
The test system of experiment [3] is Pseudomonas aeruginosa. It is filed as cell-based.

For the compound `OCCOc1ccccc1` [Formulation 2-PE, 2-Phenoxyethanol], the “VNTs after 48 h storage with preservative” value in experiment [1] is “more advantageous results”. Moreover, the antimicrobiotic activity entry in experiment [2] and in experiment [3] was “has antimicrobiotic activity” in each case.
On to `C[CH2][Hg][S]c1ccccc1C(=O)[O-].[Na+]` [Thiomersal, Natrium-2-(ethylmercurithio)benzoat], for which, in experiment [1], the “VNTs after 48 h storage with preservative” value is given as “slight decrease”.
